Test results from paper PMC7961048, “Hierarchized phosphotarget binding by the seven human 14-3-3 isoforms” (Nature Communications, 2021).
Starred links: 1 amine or outer side, 2 acyl side, 3 side chain; linkers in the order of their positions; H or OH if unused. Non-standard residues stand in square brackets, D forms with d. Residues, ends and D or L forms follow the SMILES beside them. *: point of attachment. X1 = O=C(CCCC[C@@H]1SC[C@@H]2NC(=O)N[C@@H]21)NCCCOCCOCCOCCCN*; pT = C[C@@H](OP(=O)(O)O)[C@H](N)C(=O)O; Suc = O=C(CCC(=O)[*:2])[*:1]

How the values were obtained:
Format in all cases: binding
14-3-3ε = molecular target: T1, 14-3-3ε (Homo sapiens, UniProt P62258); assay: biochemical
T1 construct: Plasmids containing the cDNAs of the full-length 14-3-3 isoforms ε, γ, and ζ were received; made in house; host or cells: E. coli BL21(DE3)
T1 sequence (P62258 1-255): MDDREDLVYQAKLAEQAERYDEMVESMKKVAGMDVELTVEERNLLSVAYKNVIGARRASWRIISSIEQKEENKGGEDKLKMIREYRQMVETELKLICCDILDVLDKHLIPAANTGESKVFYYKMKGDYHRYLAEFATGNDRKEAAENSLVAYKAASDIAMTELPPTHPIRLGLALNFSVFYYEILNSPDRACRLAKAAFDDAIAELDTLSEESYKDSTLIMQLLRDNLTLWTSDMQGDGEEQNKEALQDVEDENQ

14-3-3ζ = molecular target: T2, 14-3-3ζ (Homo sapiens, UniProt P63104); assay: biochemical
T2 construct: Plasmids containing the cDNAs of the full-length 14-3-3 isoforms ε, γ, and ζ were received; made in house; host or cells: E. coli BL21(DE3)
T2 sequence (P63104 1-245): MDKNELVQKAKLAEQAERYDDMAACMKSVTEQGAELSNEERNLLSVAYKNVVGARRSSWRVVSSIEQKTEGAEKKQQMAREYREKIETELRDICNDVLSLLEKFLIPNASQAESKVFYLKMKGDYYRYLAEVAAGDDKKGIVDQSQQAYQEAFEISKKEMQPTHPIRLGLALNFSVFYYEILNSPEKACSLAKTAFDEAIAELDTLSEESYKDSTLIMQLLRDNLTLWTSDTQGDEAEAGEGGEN

[1] = molecular target: seven human 14-3-3 isoforms; assay: Affinities averaged or compared across the 14-3-3 family (ΔΔGav, KD ratios, affinity maps); conditions: for KD ratios, compared to LRRK2 pS910/pS935, average: average over the isoforms
From the text: Former studies have measured the binding of the seven human 14-3-3 isoforms to unrelated phospho-motifs derived from Cystic Fibrosis Transmembrane Conductance Regulator (CFTR), Leucine-Rich Repeat Kinase 2 (LRRK2), Potassium channel subfamily K members (TASK1/3), C-Raf, the p65 subunit of the NF-κB transcription factor, and from Ubiquitin carboxyl-terminal hydrolase 8 (USP8), representing a wide variety of different 14-3-3-binding motifs, including C-terminal, internal, monovalent, or divalent motifs[40],[44]–[48].
(gray background). The color scale is either based on affinity values or on KD ratios. √ denotes affinities weaker than the limit of quantitation of the experimental assays. b Same map as in a, normalized to the strongest 14-3-3-binding motif. […] Source data are provided as a Source Data file.
All binding data and the obtained fits are provided as Supplementary Data File 1.

SMILES | Kd (14-3-3ε) | Binding affinities (KD) of various 14-3-3-binding motifs, 14-3-3ε (14-3-3ε; Figure 4 panel a, unit from the colour scale line, motifs measured in this work) | Kd (14-3-3ζ) | KD ratios, compared to LRRK2 pS910/pS935, 14-3-3β ([1]; Figure 4 panel b) | KD ratios, compared to LRRK2 pS910/pS935, 14-3-3γ ([1]; Figure 4 panel b) | KD ratios, compared to LRRK2 pS910/pS935, 14-3-3ζ ([1]; Figure 4 panel b) | KD ratios, compared to LRRK2 pS910/pS935, 14-3-3η ([1]; Figure 4 panel b) | KD ratios, compared to LRRK2 pS910/pS935, 14-3-3τ ([1]; Figure 4 panel b) | KD ratios, compared to LRRK2 pS910/pS935, average ([1]; Figure 4 panel b) | KD ratios, compared to 14-3-3γ, 14-3-3β ([1]; Figure 4 panel c) | KD ratios, compared to 14-3-3γ, 14-3-3γ ([1]; Figure 4 panel c) | KD ratios, compared to 14-3-3γ, 14-3-3ζ ([1]; Figure 4 panel c) | KD ratios, compared to 14-3-3γ, 14-3-3η ([1]; Figure 4 panel c) | KD ratios, compared to 14-3-3γ, 14-3-3τ ([1]; Figure 4 panel c) | binding to 14-3-3 proteins ([1]; competitive FP, seven MBP-fused full-length 14-3-3 isoforms, result in words) | KD ratios, compared to LRRK2 pS910/pS935, 14-3-3ε ([1]; Figure 4 panel b, 14-3-3ε) | KD ratios, compared to LRRK2 pS910/pS935, 14-3-3σ ([1]; Figure 4 panel b, 14-3-3σ) | KD ratios, compared to 14-3-3γ, 14-3-3ε ([1]; Figure 4 panel c, 14-3-3ε) | KD ratios, compared to 14-3-3γ, 14-3-3σ ([1]; Figure 4 panel c, 14-3-3σ)
CC(C)C[C@H](NC(=O)[C@H](CCC(N)=O)NC(=O)[C@@H](NC(=O)[C@H](CCC(=O)O)NC(=O)[C@H](CCCNC(=N)N)NC(=O)[C@H](CCCNC(=N)N)NC(=O)[C@@H](NC(=O)[C@H](CCCNC(=N)N)NC(=O)[C@H](CO)NC(=O)[C@H](CO)NC(=O)CCC(=O)NCCCOCCOCCOCCCNC(=O)CCCC[C@@H]1SC[C@@H]2NC(=O)N[C@@H]21)[C@@H](C)O)[C@@H](C)OP(=O)(O)O)C(=O)O [pHPV16E6] | > 300 µM | √ | 73.6 ± 19.1 µM | 7536 | 11625 | 15333 | 16771 | 15158 | 13000 | 4.27 | 1.00 | 1.98 | 2.16 | 3.87 | detectably bound |  |  |  | 
CC(C)[C@H](NC(=O)[C@H](C)NC(=O)[C@@H](NC(=O)[C@H](CCC(=O)O)NC(=O)[C@H](CCCNC(=N)N)NC(=O)[C@H](CCCNC(=N)N)NC(=O)[C@@H](NC(=O)[C@@H]1CCCN1C(=O)[C@H](CCCCN)NC(=O)[C@H](CO)NC(=O)CCC(=O)NCCCOCCOCCOCCCNC(=O)CCCC[C@@H]1SC[C@@H]2NC(=O)N[C@@H]21)[C@@H](C)O)[C@@H](C)OP(=O)(O)O)C(=O)O [pHPV35E6E-1A] ({X1-Suc}-SKPTRRE[pT]AV-OH) | 31.9 µM |  | 17.6 µM | 957.35 | 2909.38 | 3666.67 | 2583.33 | 2263.16 | 2200.00 | 2.17 | 1.00 | 1.89 | 1.33 | 2.31 |  | 2572.58 | 727.72 | 3.43 | 4.74
